Consider 16 molecules from ChEMBL document CHEMBL1770070, “Dibenzylideneacetone analogues as novel Plasmodium falciparum inhibitors” (Bioorg Med Chem Lett, 2011).

Data set [1] concerns Plasmodium falciparum. Briefly: Antiplasmodial activity against blood stage of chloroquine-sensitive Plasmodium falciparum 3D7 infected in human O positive erythrocytes after 48 hrs by SYBR green-I based fluorescence assay. In kind it is functional, organism-based. The conditions noted are these: 3D7, 48 h.
Data set [2] relates to Plasmodium falciparum. The experiment in a line: Resistance index, ratio for IC50 for chloroquine-resistant Plasmodium falciparum isolate RKL9 to IC50 for chloroquine-sensitive Plasmodium falciparum 3D7. In kind it is functional.
Data set [3] in a line: Cytotoxic activity against human HeLa cells after 24 to 48 hrs by MTT assay. In kind it is cell-based. The conditions noted are these: read-out: TC50 (the source's name).
Data set [4] deals with Plasmodium falciparum. Briefly: Antiplasmodial activity against blood stage of chloroquine-resistant Plasmodium falciparum isolate RKL9 infected in human O positive erythrocytes after 48 hrs by SYBR green I-based fluorescence assay. In kind it is functional, organism-based. The conditions noted are these: isolate RKL9, 48 h.
The nature of data set [5]: Therapeutic index, TC50 for human HeLa cells to IC50 for chloroquine-resistant Plasmodium falciparum isolate RKL9. In kind it is cell-based. To be noted: read-out: TI.

Turning to `O=C(/C=C/c1ccc(Cl)cc1)/C=C/c1ccc(Cl)cc1`, the IC50 in the data set with Plasmodium falciparum [1] amounted to 92.4 µM.

On to `O=C(/C=C/c1ccc(Cl)cc1Cl)/C=C/c1ccc(Cl)cc1Cl`, for which the “Ratio IC50” value with Plasmodium falciparum [2] was 1.08. For the same molecule, the CC50 in data set [3] is > 269 µM. The IC50 with Plasmodium falciparum [1] came to 9.94 µM; in the data set with Plasmodium falciparum [4] it was 10.8 µM. Besides, the selectivity ratio in data set [5] was > 25.

In the data set with Plasmodium falciparum [1], `O=C(/C=C/c1cccc([N+](=O)[O-])c1)/C=C/c1cccc([N+](=O)[O-])c1` showed a half-maximal inhibitory concentration (IC50) of 38.5 µM. In other words, the double-digit micromolar range.

For `COc1ccc(/C=C/C(=O)/C=C/c2ccc(OC)c(OC)c2)cc1OC`, the “Ratio IC50” value in the data set with Plasmodium falciparum [2] is given as 0.85. In data set [3], the CC50 is 282 µM. In addition, the IC50 amounted to 1.97 µM in the data set on Plasmodium falciparum [1] and 1.69 µM with Plasmodium falciparum [4]. Moreover, the selectivity ratio in data set [5] stood at 166.

`O=C(/C=C/c1ccc(Br)cc1)/C=C/c1ccc(Br)cc1`: in the data set on Plasmodium falciparum [1], the midpoint of inhibition, the IC50, lay at 222 µM.

Take `Fc1ccc(/C=C/C2=NN(c3ccccc3)C(c3ccc(F)cc3)C2)cc1` (configuration not stated): in the data set on Plasmodium falciparum [2], the “Ratio IC50” value is reported as 1.21. For the same molecule, the CC50 in data set [3] is > 277 µM. Also, the values for the IC50 in the data set on Plasmodium falciparum [1] and with Plasmodium falciparum [4] were 9.1 µM and 11.1 µM, respectively. For the same molecule, the selectivity ratio in data set [5] is > 25.

`Cc1ccc(/C=C/C(=O)/C=C/c2ccc(C)cc2)cc1` registered an IC50 with Plasmodium falciparum [1] of 114 µM.

For `COc1ccc(/C=C/C2=NN(c3ccccc3)C(c3ccc(OC)cc3)C2)cc1` (configuration not stated), in the data set on Plasmodium falciparum [1], the IC50 was > 130 µM.

With `C(=C\c1ccccc1)/C1=NN(c2ccccc2)C(c2ccccc2)C1` (configuration not stated), the IC50 with Plasmodium falciparum [1] is > 308 µM.

In turn, `CN(C)c1ccc(/C=C/C(=O)/C=C/c2ccc(N(C)C)cc2)cc1` had an IC50 in the data set with Plasmodium falciparum [1] of 156 µM.

`O=C(/C=C/c1ccc(F)cc1)/C=C/c1ccc(F)cc1` returned an IC50 in the data set with Plasmodium falciparum [1] of 133 µM. The IC50 values of the last two molecules are within 1.5-fold of each other.

In the case of `O=C(/C=C/c1ccccc1Cl)/C=C/c1ccccc1Cl`, the “Ratio IC50” value in the data set with Plasmodium falciparum [2] was determined as 1. In data set [3], the CC50 amounted to 231 µM. Further, the IC50 in the data set with Plasmodium falciparum [1] and in the data set on Plasmodium falciparum [4] was 6.26 µM throughout. The selectivity ratio in data set [5] worked out at 37.

With `COc1ccccc1/C=C/C(=O)/C=C/c1ccccc1OC`, the IC50 in the data set with Plasmodium falciparum [1] is 74.7 µM.

As for `Cc1ccc(/C=C/C2=NN(c3ccccc3)C(c3ccc(C)cc3)C2)cc1` (configuration not stated), the IC50 in the data set on Plasmodium falciparum [1] is > 142 µM.

In turn, `O=C(/C=C/c1ccccc1)/C=C/c1ccccc1` came in with a concentration for half-maximal inhibition (IC50) with Plasmodium falciparum [1] of 213 µM.

In the case of `COc1ccc(/C=C/C(=O)/C=C/c2ccc(OC)cc2)cc1`, in the data set with Plasmodium falciparum [1], inhibition was half-maximal at 255 µM (IC50). The IC50 values of the last two molecules are within 1.5-fold of each other.

By IC50 is commonly meant the concentration that inhibits the measured activity by half. High values mean a need for much substance, low ones inhibition by little substance.
